Data taken from publication PMC8033486 (Frontiers in Pharmacology, 2021).
“Also recorded” adds a separate entry of the source. Counter-ions that a name gives are not always drawn. Like-named read-outs stand apart in the source and are kept apart here.

B1: interferon-γ (protein, UniProt P01579 24-161, looked up)
Interferon gamma: QDPYVKEAENLKKYFNAGHSDVADNGTLFLGILKNWKEESDRKIMQSQIVSFYFKLFKNFKDDQSIQKSVETIKEDMNVKFFNSNKKKRDDFEKLTNYSVTDLNVQRKAIHELIQVMAELSPAAKTGKRKRSQMLFRG

Assays:
[1] = test system: SARS-CoV-2; test: microbe, parasite or virus in culture; type: cell-based; details: for Inhibition of SARS-CoV-2-induced cytopathic effect, result in words: Vero E6; for IC50: read-out: IC50 (Mean +/- SD)
[2] = test system: lentiviruses pseudotyped with SARS-CoV-2 Spike; type: cell-based
[3] = in vitro; details: African green monkey
[4] = test system: Vero E6 cells
[5] = test system: lentiviruses pseudotyped with SARS-CoV-2 Spike; type: cell-based; remark: listed apart in the source
[6] = test system: SARS-CoV-2; type: cell-based; details: Vero E6, day 3 post-infection, non-toxic concentrations
[7] = CC50, Vero E6, no virus, 3 days

Molecule	Inhibition of SARS-CoV-2-induced cytopathic effect, result in words [1]	Block of SARS-CoV-2 Spike pseudovirus entry, result in words [2]	IC50 (Mean +/- SD) [1]	CC50 ([4]; Vero E6, no virus, 3 days)	also measured
CCOC(=O)c1c(CSc2ccccc2)n(C)c2cc(Br)c(O)c(CN(C)C)c12 [Arbidol HCl]	failed to protected Vero E6 cells from SARS-CoV-2 induced cytopathic effect	partial blocking effect	–	–	CC50 at 3 days [3, 7]: > 40 µM
CCCCN1C[C@H](O)[C@@H](O)[C@H](O)[C@H]1CO [NB-DNJ]	decreased SARS-CoV-2 cytopathic effect	failed to block viral entry	active at 100	> 100 µM	–
COC(=O)N[C@H](C(=O)N[C@@H](Cc1ccccc1)[C@@H](O)CN(Cc1ccc(-c2ccccn2)cc1)NC(=O)[C@@H](NC(=O)OC)C(C)(C)C)C(C)(C)C.O=S(=O)(O)O [Atazanavir Sulfate]	–	–	Not Active	> 20 µM	–
CCN(CC)CCCC(C)Nc1ccnc2cc(Cl)ccc12 (stereo not drawn) [Chloroquine]	–	–	–	–	IC50 ([1]; Severe acute respiratory syndrome coronavirus 2, Vero C1008, 72 h): 3.9 µM; IC50 [1]: 3.86 µM; Block of SARS-CoV-2 Spike pseudovirus entry, result in words [5]: reduced its inhibitory activity
CC(C)C(=O)OCC(=O)[C@@]12O[C@H](C3CCCCC3)O[C@@H]1C[C@H]1[C@@H]3CCC4=CC(=O)C=C[C@]4(C)[C@H]3[C@@H](O)C[C@@]12C [Ciclesonide]	failed to protected Vero E6 cells from SARS-CoV-2 induced cytopathic effect	partial blocking effect	–	–	CC50 at 3 days ([3]; CC50): > 20 µM
Cl.Cl.O=C(O)COCCN1CCN(C(c2ccccc2)c2ccc(Cl)cc2)CC1 (stereo not drawn) [Cetirizine dihydorcloride]	–	–	Not Active	–	CC50 [4]: > 100 µM
CCN1CCN(Cc2ccc(Nc3ncc(F)c(-c4cc(F)c5nc(C)n(C(C)C)c5c4)n3)nc2)CC1 [Abenaciclib]	–	–	–	> 1 µM	–
CN(C)C(=O)COC(=O)Cc1ccc(OC(=O)c2ccc(NC(=N)N)cc2)cc1 [Camostat]	no antiviral effect on Vero E6 cells	failed to inhibit viral fusion; also recorded: displays no activity	–	–	Block of SARS-CoV-2 Spike pseudovirus entry, result in words [5]: activity was rescued; CC50 [3]: > 100 µM
CCOC(=O)[C@H]1O[C@@H]1C(=O)N[C@@H](CC(C)C)C(=O)NCCC(C)C [E-64d]	partial inhibitory activity	active when TMPRSS2 is not present	partialy active at 100	> 100 µM	–
CC(C)OC(=O)C(C)(C)Oc1ccc(C(=O)c2ccc(Cl)cc2)cc1 [Fenofibrate]	–	viral entry was abrogated	–	–	SARS-CoV-2 release to the supernatant (nucleoprotein ELISA), result in words [6]: less active inhibiting viral release as compared to the rest of the inhibitors tested; CC50 at 3 days [3]: > 100 µM
CCCNC(=O)[C@H]1O[C@@H]1C(=O)N[C@H](C(=O)N1CCC[C@H]1C(=O)OC)[C@@H](C)CC [CA-074-Me]	could not be confirmed using the specific cathepsin B inhibitor CA-074-Me due to drug-associated toxicity	partial blocking effect	Not Active	> 34 µM	–
Alpha-1 Antitrypsin	exerted an effect but required high concentrations	–	–	–	IC50, result in words ([1]; Vero E6, cytopathic effect): active at 12.5; CC50 ([4]; Vero E6, no virus): > 12.5 mg/mL
CN(C)CCCN1c2ccccc2Sc2ccc(Cl)cc21 [Chlorpromazine]	we did not find any prominent effect	–	–	–	CC50 at 3 days [3, 7]: > 18 µM
Nc1nc(=O)n([C@@H]2CS[C@H](CO)O2)cc1F [Emtricitabine]	failed to show any antiviral effect	–	–	–	IC50 (Mean +/- SD) ([1]; Vero E6, cytopathic effect 3 days after infection, repeated experiments): Not Active; CC50 at 3 days [3, 7]: > 100 µM
B1	–	–	–	–	CC50 ([4]; interferons, Vero E6, no virus, 3 days): > 100 × 10^2 IU/mL
